Counter-ions that a name gives are not always drawn. Like-named read-outs stand apart in the source and are kept apart here.
Assays:
[1] = parameters: method as in PMID 26116126; settings: direct radiolabeling; cited from earlier work
[2] = parameters: method as in PMID 29563325; settings: cited from earlier work
cynomolgus monkeys [3] = assay: scopolamine-induced qEEG spectral changes (scopolamine challenge paradigm); type: in vivo, cynomolgus monkeys (Macaca fascicularis)
Experimental: (§1) Implant surgery was carried out at Hamri Company Limited (Ibaraki, Japan). Briefly, under isoflurane anesthesia (1–5%, Pfizer Japan Inc., Tokyo, Japan), male cynomolgus monkeys (3–5 years old, Hamri Co., Ltd., Ibaraki, Japan) were surgically implanted with radio-telemetry transmitters (TL10M3-D70-EEE, Data Sciences International Inc., St. Paul, MN). EEG leads were stereotaxically positioned in the parietal area and secured to the cranium with stainless-steel screws in contact with the dura. […] Bilateral electromyography (EMG) leads were implanted in the back cervical muscles. After surgery, each monkey was administered penicillin (100,000 units/animal, i.m., Meiji Seika Pharma Co., Ltd., Tokyo, Japan), buprenorphine (0.02 mg/kg, i.m., Otsuka Pharmaceutical Co., Ltd., Tokyo, Japan), and prednisolone (1 mg/kg, subcutaneously [s.c.], Kyoritsu Seiyaku Co., Ltd., Tokyo, Japan) daily for one week.
(§2) TAK-071, 4-fluoro-2-[(3S,4S)-4-hydroxytetrahydro-2H-pyran-3-yl]-5-methyl-6-[4-(1H-pyrazol-1-yl)benzyl]-2,3-dihydro-1H-isoindol-1-one, was synthesized by Takeda Pharmaceutical Company Limited (Kanagawa, Japan). Donepezil hydrochloride and xanomeline oxalate were purchased from Mega Fine Pharma (P) Limited (Mumbai, India) and Metina AB (Lund, Sweden), respectively. […] TAK-071 and donepezil hydrochloride were suspended in 0.5% (w/v) methylcellulose in distilled water and the volume of administration was 2 mL/kg orally (p.o.). […] The doses of compounds correspond to their salt forms. The administration was scheduled according to a 3×3 cross-over design.
(§3) After at least a 1-month recovery period in their home cages, the monkeys were habituated to the recording chamber (acrylic cage, 60 × 55 × 75 [cm^3 width × depth × height]) located in a soundproof, electrically shielded room. Cortical EEG, EMG, and EOG signals were recorded at a sampling rate of 500 Hz using Dataquest ART software (Data Sciences International, New Brighton, MN). The behavioral and postural changes of the animals were observed using a video camera continuously throughout the experiment. The recordings were performed between 9 a.m. and 4 p.m..
(§4) EEG data were analyzed off-line using SleepSign (KISSEI COMTEC Co., Ltd., Nagano, Japan). Digitized EEG signals were high-pass filtered with a 0.75-Hz filter. Spectral power densities for each frequency band were calculated by fast Fourier transform in consecutive 10-s epochs. Epochs containing abnormal EEG, defined by excessive amplitude (> 500 μV), were omitted from data analysis. For analysis of temporal changes in a specific spectral band (1–4 Hz for delta, 4–8 Hz for theta, 8–12 Hz for alpha, 12–30 Hz for beta, 30–80 Hz for gamma), the EEG power of each spectral band was calculated every 15 min. For each animal, the qEEG spectral analyses were performed from 30 to 240 min after treatment because oral and subcutaneous administration of drugs to monkeys can affect the qEEG power spectra. Data obtained in the post-drug period were normalized with those obtained in the baseline period and were calculated as the area under the curve (AUC) between 30 and 210 min after drug administration for quantitative analyses.

rats = tested on: rats; parameters: method as in PMID 30089885; settings: TAK-071 0.3 mg/kg; cited from earlier work
M1R = tested on: M1R; parameters: method as in PMID 30089885; settings: previous study; cited from earlier work
cynomolgus monkeys [4] = assay: qEEG power spectra after treatment with drug alone (radio-telemetry EEG); type: in vivo, cynomolgus monkeys (Macaca fascicularis)
Experimental: as §1, §2, §3, §4

[5] = parameters: method as in PMID 30089885; settings: rats, TAK-071 0.3 mg/kg; cited from earlier work
patients with AD = tested on: patients with AD; parameters: method as in PMID 14626697; settings: cited from earlier work
freely moving rats = tested on: freely moving rats; parameters: method as in PMID 25181033, PMID 26901596; settings: cited from earlier work
monkeys [6] = settings: cited from earlier work
healthy young volunteers = tested on: healthy young volunteers; parameters: method as in PMID 1375552; settings: cited from earlier work
monkeys [7] = tested on: monkeys; parameters: method as in PMID 17657478, PMID 25491927; settings: scopolamine 20–50 μg/kg; cited from earlier work
healthy subjects = healthy subjects after scopolamine treatment; cited from earlier work
monkeys [8] = settings: xanomeline 1 mg/kg subcutaneous; cited from earlier work
[9] = TAK-071 3 mg/kg p.o. simultaneously with scopolamine 25 μg/kg s.c., P ≤ 0.05
[10] = donepezil 3 mg/kg p.o. simultaneously with scopolamine 25 μg/kg s.c.
[11] = donepezil alone, 0.3 and 3 mg/kg p.o.
[12] = xanomeline 1 mg/kg s.c. simultaneously with scopolamine 25 μg/kg s.c., not statistically significant

## Cc1cc(F)c2[nH]c(=O)n(C3CCN(C4CCOCC4)CC3)c2c1 [GSK1034702]
[1]
  brain uptake by PET: good brain uptake

## Cc1ccc(Cc2cc3c(=O)n([C@H]4CCCC[C@@H]4O)cnc3c3ccccc23)cn1 [MK-7622]
[2]
  alpha power band: reductions
  theta power band: reductions

## Cc1c(Cc2ccc(-n3cccn3)cc2)cc2c(c1F)CN([C@H]1COCC[C@@H]1O)C2=O [TAK-071, 4-fluoro-2-[(3S,4S)-4-hydroxytetrahydro-2H-pyran-3-yl]-5-methyl-6-[4-(1H-pyrazol-1-yl)benzyl]-2,3-dihydro-1H-isoindol-1-one]
Cynomolgus monkeys [3]; TAK-071 1 mg/kg p.o. simultaneously with scopolamine 25 μg/kg s.c., P ≤ 0.05
  scopolamine-induced increase in alpha power band: significantly reduced
Cynomolgus monkeys [3]; [9]
  scopolamine-induced increase in alpha power band: significantly suppressed
  scopolamine-induced increase in theta power band: significantly suppressed
Cynomolgus monkeys [3]; TAK-071 1 and 3 mg/kg p.o. simultaneously with scopolamine 25 μg/kg s.c., no significant effect
  scopolamine-induced increase in delta power band: a decreasing trend was observed
rats
  scopolamine-induced cognitive deficits: significantly ameliorated
M1R
  selectivity as M1 PAM: highly selective M1 PAM
Cynomolgus monkeys [4]; TAK-071 alone, 1 mg/kg p.o., P ≤ 0.05 vs vehicle
  theta power band of qEEG spectra: significantly decreased
Cynomolgus monkeys [4]; TAK-071 alone, 0.3–3 mg/kg p.o.
  delta power band of qEEG spectra: did not change
Cynomolgus monkeys [4]; TAK-071 alone, 1 and 3 mg/kg p.o., P ≤ 0.05 vs vehicle
  alpha power band of qEEG spectra: significantly decreased
[5]
  maximum plasma concentration: 232 ng/mL

## COc1cc2c(cc1OC)C(=O)C(CC1CCN(Cc3ccccc3)CC1)C2 (centres unmarked) [donepezil, Donepezil hydrochloride]
Patients with AD
  alpha activity: increased
  beta activity: increased
  delta activity: significantly decreased
Cynomolgus monkeys [3]; [10]
  scopolamine-induced increase in alpha power band: tended to be attenuated
  scopolamine-induced increase in theta power band: tended to be attenuated
Cynomolgus monkeys [3]; donepezil 3 mg/kg p.o. simultaneously with scopolamine 25 μg/kg s.c., P ≤ 0.05 vs scopolamine
  scopolamine-induced increase in delta power band: significantly suppressed
Freely moving rats
  delta power band after treatment with scopolamine: decreased
Cynomolgus monkeys [4]; donepezil alone, 0.3 mg/kg p.o., dose-dependency not observed
  alpha power band of qEEG spectra: increased
Cynomolgus monkeys [4]; [11]
  delta power band of qEEG spectra: did not affect
  theta power band of qEEG spectra: did not affect
Monkeys [6]; oral administration of 3 mg/kg donepezil
  scopolamine-induced cognitive deficits: improved
Monkeys [6]; oral donepezil 1–3 mg/kg
  scopolamine-induced cognitive deficits: significantly attenuated

## COc1ccc2c3c1O[C@H]1C[C@@H](O)C=C[C@@]31CCN(C)C2 [galantamine]
Healthy young volunteers
  theta power band: did not change

## CCN(C)C(=O)Oc1cccc([C@H](C)N(C)C)c1 [rivastigmine]
Freely moving rats
  delta power band after treatment with scopolamine: decreased

## CN1[C@@H]2C[C@@H](OC(=O)[C@H](CO)c3ccccc3)C[C@H]1[C@@H]1O[C@@H]12 [scopolamine, Scopolamine hydrobromide]
Cynomolgus monkeys [4]; scopolamine 25, 50, or 100 μg/kg s.c.
  alpha, theta, and delta power bands, dose-dependency: increased alpha, theta, and delta power bands in a dose-dependent manner
Cynomolgus monkeys [4]; scopolamine 25-100 μg/kg s.c.
  persistence of effects in all power bands after treatment: 240 min
Monkeys [7]
  cognitive impairment: moderately caused cognitive impairment
Healthy subjects
  alpha power band, resting state: decrease
  delta power band, resting state: increase

## Nc1c2c(nc3ccccc13)CCCC2 [tacrine]
Freely moving rats
  delta power band after treatment with scopolamine: decreased

## CCCCCCOc1nsnc1C1=CCCN(C)C1 [xanomeline, xanomeline oxalate]
Monkeys [8]
  antipsychotic-like activity and sedative effects: exhibited antipsychotic-like activity without inducing sedative effects
Cynomolgus monkeys [3]; [12]
  scopolamine-induced increase in alpha power band: showed a trend to suppress
  scopolamine-induced increase in delta power band: showed a trend to suppress
  scopolamine-induced increase in theta power band: showed a trend to suppress
Monkeys [6]; intramuscular administration of 0.1 mg/kg xanomeline
  scopolamine-induced cognitive deficits: improved
